Test [1] relates to rat hepatic microsomal PTPases. The note with it: PTPase activity, compound at 50 μM.
In the next test the test system is diabetic (ob/ob) mice. The test can be described thus: Blood glucose lowering activity in diabetic (ob/ob) mice. It counts as in vivo, mouse. The note with it: Mus musculus, po, 96 h, ob/ob mice, dose 25 mg/Kg, plasma glucose Day 4, 7 or 14; read-out: % Change Glucose from Vehicle. How it is done:
The blood glucose lowering activity of representative compounds of this invention were determined in an in vivo standard procedure using diabetic (ob/ob) mice. The procedures used and results obtained are briefly described below. The non-insulin dependent diabetic (NIDDM) syndrome can be typically characterizes by obesity, hyperglycemia, abnormal insulin secretion, hyperinsulinemia and insulin resistance. […] In each test procedure, mice [Male or female ob/ob (C57 B1/6J) and their lean litermates (ob+ or +/+, Jackson Laboratories) ages 2 to 5 months (10 to 65 g)] of a similar age were randomized according to body weight into 4 groups of 10 mice. The mice were housed 5 per cage and are maintained on normal rodent chow with water ad libitum. Mice received test compound daily by gavage (suspended in 0.5 ml of 0.5% methyl cellulose); dissolved in the drinking water; or admixed in the diet. […] The dose is calculated based on the fed weekly body weight and is expressed as active moiety. […] Control mice received vehicle only. On the morning of Day 4, 7 or 14 two drops of blood (approximetly 50 ul) were collected into sodium fluoride containing tubes either from the tail vein or after decapitation. For those studies in which the compound was administered daily by gavage the blood samples were collected two hours after compound administration. The plasma was isolated by centrifugation and the concentration of glucose is measured enzymatically on an Abbott V. P. Analyzer. […] Analysis of variance followed by Dunett's Comparison Test (one-tailed) are used to estimate the significant difference between the plasma glucose values from the control group and the individual compound treated groups (CMS SAS Release 5.18).

A further test deals with T1, Human recombinant PTP1B (Homo sapiens, UniProt P18031).
T1 construct: made in house
T1 sequence (P18031 1-435): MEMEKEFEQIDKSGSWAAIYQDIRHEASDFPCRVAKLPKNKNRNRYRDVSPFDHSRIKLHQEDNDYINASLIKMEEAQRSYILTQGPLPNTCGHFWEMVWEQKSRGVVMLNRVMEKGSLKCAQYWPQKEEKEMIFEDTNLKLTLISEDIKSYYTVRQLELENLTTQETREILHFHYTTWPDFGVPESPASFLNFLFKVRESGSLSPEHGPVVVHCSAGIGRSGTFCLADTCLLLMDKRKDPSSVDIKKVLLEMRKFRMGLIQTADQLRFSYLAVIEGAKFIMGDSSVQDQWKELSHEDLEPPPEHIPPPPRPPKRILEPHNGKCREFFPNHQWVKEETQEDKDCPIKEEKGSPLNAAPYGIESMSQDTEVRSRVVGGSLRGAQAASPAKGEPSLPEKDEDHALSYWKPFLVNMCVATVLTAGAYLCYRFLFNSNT
It counts as biochemical. The note with it: read-out: IC50.

By IC50 is commonly meant the midpoint of a concentration-inhibition curve. Take `COc1cc(-c2c3ccccc3c(Br)c3sc4ccccc4c23)cc(Br)c1O[C@H](Cc1ccccc1)C(=O)O` [Example 194, (R)-2-[2-Bromo-4-(6-bromo-benzo[b]naphtho[2,3-d]thiophen-11-yl)-6-methoxy-phenoxy]-3-phenyl-propionic acid]: in test [1], the “% Change from Control” value is on record as -79.35%. Further, in the test on diabetic (ob/ob) mice, the change in vivo at 25 mg/kg is -32%. For the same compound, the 50% inhibitory concentration (IC50) on Human recombinant PTP1B worked out at 217 nM.

Values taken from US6110962A, “11-aryl-benzo[B]naphtho[2,3-D]furans and 11-aryl-benzo[B]naphtho[2,3-D]thiophenes useful in the treatment of insulin resistance and hyperglycemia” (American Home Products Corporation, priority 1999, dated 2000).
